Source: patent US11844847B2, “Sulfur-containing polymerizable monomer and use thereof” (SUN MEDICAL CO., LTD., priority 2018, dated 2023)

Test: Solubility evaluation: solution stirred 0.5 hours, visually inspected for insolubles
Type: physicochemical
Protocol: Solutions were obtained by adding the sulfur-containing compound of the amount described in Table 1 or Table 1a to the amount described in Table 1 or Table 1a of the organic solvent or the radically polymerizable monomer.
The solutions obtained were stirred with a magnetic stirrer for 0.5 hours and were then visually inspected for the presence of insolubles. The solutions were evaluated as ◯ when the solution was transparent and free from insolubles, as Δ when the solution was turbid but free from insolubles, and as x when insolubles were present. The solubility evaluations in Tables 3 to 6 are also based on the same criteria.

[1] = 2.6 parts sulfur-containing compound in 97.4 parts IPA
[2] = 2.6 parts sulfur-containing compound in 97.4 parts MMA
[3] = 2.6 parts sulfur-containing compound in 97.4 parts acetone
[4] = 0.65 parts sulfur-containing compound in 99.35 parts IPA
[5] = 20 parts sulfur-containing compound in 80 parts acetone
[6] = added to acetone at a concentration of 20 mass %

| SMILES | Solubility [1] | Solubility [2] | Solubility [3] | Solubility [5] | other results |
| --- | --- | --- | --- | --- | --- |
| C=C(C)C(=O)OCCOC(=O)CCC1NC(=S)NC1=O (stereo not drawn) [2-THPEM, 2-((3-(5-oxo-2-thioxoimidazolidin-4-yl)propanoyl)oxy)ethyl methacrylate] | ∘ | ∘ | ∘ | – | – |
| C=C(C)C(=O)OCCCCCCOC(=O)CCC1NC(=S)NC1=O (stereo not drawn) [6-THPHM, 6-((3-(5-oxo-2-thioxoimidazolidin-4-yl)propanoyl)oxy)hexyl methacrylate] | ∘ | ∘ | ∘ | – | – |
| C=Cc1ccc(CN(CCC)c2nc(=S)[nH]c(=S)[nH]2)cc1 [VBATDT, 6-(4-Vinylbenzyl-n-propyl)amino-1,3,5-triazine-2,4-dithione, reference compound] | – | – | ∘ | – | Solubility (0.5 parts sulfur-containing compound in 99.5 parts acetone): ∘; solubility (in words) [6]: generated insolubles; solubility (in words) (with respect to IPA and MMA): low solubility |
| C=C(C)C(=O)OCCCCCCCC=C1NC(=S)NC1=O [a23, 8-(5-oxo-2-thioxoimidazolidin-4-ylidene)octyl methacrylate] | ∘ | ∘ | – | ∘ | – |
| C=C(C)C(=O)OCCCCCCCCCC=C1NC(=S)NC1=O [a25, 10-(5-oxo-2-thioxoimidazolidin-4-ylidene)decyl methacrylate] | ∘ | ∘ | – | ∘ | – |

Continued, in another order:

| Solubility [1] | Solubility [2] | Solubility [3] | Solubility [5] | SMILES | other results |
| --- | --- | --- | --- | --- | --- |
| ∘ | ∘ | ∘ | – | C=C(C)C(=O)OCCCCOC(=O)CCC1NC(=S)NC1=O (stereo not drawn) [4-THPBM, 4-((3-(5-oxo-2-thioxoimidazolidin-4-yl)propanoyl)oxy)butyl methacrylate] | – |
| ∘ | ∘ | ∘ | ∘ | C=C(C)C(=O)OCCCCCCCCCCOC(=O)CCC1NC(=S)NC1=O (stereo not drawn) [10-THPDM, 10-((3-(5-oxo-2-thioxoimidazolidin-4-yl)propanoyl)oxy)decyl methacrylate] | Solubility [4]: ∘; Solubility (0.65 parts sulfur-containing compound in 99.35 parts MMA): ∘; Solubility (0.65 parts sulfur-containing compound in 99.35 parts acetone): ∘; solubility (in words) [6]: dissolved completely |
| ∘ | ∘ | – | ∘ | C=C(C)C(=O)OCCCCCCC1NC(=S)NC1=O (stereo not drawn) [a20, 6-(5-oxo-2-thioxoimidazolidin-4-yl)hexyl methacrylate] | – |
| – | ∘ | – | – | C=C(C)C(=O)OCCCCCC=C1NC(=S)NC1=O [a21, 6-(5-oxo-2-thioxoimidazolidin-4-ylidene)hexyl methacrylate] | Solubility [4]: ∘; Solubility (10 parts sulfur-containing compound in 90 parts acetone): ∘ |
| ∘ | ∘ | – | ∘ | C=C(C)C(=O)OCCCCCCCCCCC1NC(=S)NC1=O (stereo not drawn) [a24, 10-(5-oxo-2-thioxoimidazolidin-4-yl)decyl methacrylate] | – |
